# Reference: patent US20240358625A1, “STABILIZATION OF MYCOSPORINE-LIKE AMINO ACIDS” (NAGASE & CO., LTD., priority 2021, published 2024)
# How the values were obtained:
# Type in all cases: physicochemical
# [1] = Effect of 4-DG ratio on stabilizing MG and on coloring of the MG solution; conditions: MG 0.1%, 4-DG ratio 1.5 to 11.1 parts by weight
# Protocol: The effect of 4-DG on stabilizing MG was investigated. Solutions at pH 7 (in 0.1M phosphate buffer) containing various ratios of 4-DG to MG (0.1%) were prepared, and the amount of MG after standing at 60° C. for 57 days was measured. Then, the MG residual rate was determined. Additionally, the absorbance (400 nm) of the solution was measured over time during the experiment period.
# [2] = Influence of pH on the stability of MG in solution and coloring of the MG solution
# Protocol: Influence of pH on the stability of MG in a solution and the coloring of an MG solution were investigated. Adjustment of the solution to each pH was performed using 0.1 M phosphate buffer and phosphoric acid and NaOH as necessary. The MG concentration in the solution was 0.1%. MG solutions of each pH were prepared and left at 60° C. for 4 days, and then the amount of MG and the absorbance (400 nm) of the solutions were measured. The MG residual rate was determined by comparing with the amount at the start of the experiment.
# [3] = Influence of bases constituting nucleic acids on the stability of MGA (residual rate); conditions: 0.1% MGA, pH 7.5, 60° C. for 3 days; adenine 0.01%, guanine, cytosine, uracil, thymine 0.2%
# Protocol: The influence of bases (adenine, guanine, cytosine, uracil, and thymine) constituting nucleic acids on the stability of MGA and MG was investigated. A 0.1% MGA solution (adjusted to pH 7.5 with 0.1M phosphate buffer) each containing adenine (0.01%), guanine (0.2%), cytosine (0.2%), uracil (0.2%), or thymine (0.2%) was prepared. A 0.1% MG solution (adjusted to pH 7.5 with 0.1M phosphate buffer) each containing adenine (0.01%), cytosine (0.2%), uracil (0.2%), or thymine (0.2%) was prepared. After these solutions were left at 60° C. for 3 days for MGA, 20 days and 49 days for MG, the amounts of MGA and MG were measured to determine the residual rate.
# [4] = weakly acidic to weakly alkaline conditions, 60° C. for 4 days
"residual rate of MG ([1]; pH 7, 60° C. for 57 days) [%]","absorbance (400 nm) of the solution ([1]; pH 7, 60° C., 57th day)","MG residual rate ([2]; 0.1% MG, 0.1 M phosphate buffer, pH 5.4 to 8.8, 60° C. for 4 days) [%]","absorbance (400 nm) of the solution ([2]; 0.1% MG, pH 5.4 to 8.0, 60° C. for 4 days)","coloring of the MG solution [2, 4]","stability of MG [2, 4]",stabilizing effect on MGA [3],Compound
≥ 74,≤ 0.17,≥ 88,≤ 0.018,suppressed,stabilized,–,"COC1=C(NCC(=O)O)C[C@@](O)(CO)CC1=O [MG, mycosporine-glycine]"
–,–,–,–,–,–,confirmed,Nc1nc2nc[nH]c2c(=O)[nH]1 [guanine]
